Measured values from ChEMBL document CHEMBL3525934 (Drug Metab Dispos, 2013).

Experiments:
Format in all cases: ADME
Settings in all cases: 0.5 h
[1] = molecular target: T1, Cytochrome P450 2C8 (Homo sapiens, UniProt P10632); test: Drug metabolism in supersomes expressing human recombinant CYP2C8 assessed as enzyme-mediated cyanide adduct formation at 100 uM after 30 mins measured per nmol of P450 by HPLC analysis in presence of KCN
T1 sequence (P10632 whole entry): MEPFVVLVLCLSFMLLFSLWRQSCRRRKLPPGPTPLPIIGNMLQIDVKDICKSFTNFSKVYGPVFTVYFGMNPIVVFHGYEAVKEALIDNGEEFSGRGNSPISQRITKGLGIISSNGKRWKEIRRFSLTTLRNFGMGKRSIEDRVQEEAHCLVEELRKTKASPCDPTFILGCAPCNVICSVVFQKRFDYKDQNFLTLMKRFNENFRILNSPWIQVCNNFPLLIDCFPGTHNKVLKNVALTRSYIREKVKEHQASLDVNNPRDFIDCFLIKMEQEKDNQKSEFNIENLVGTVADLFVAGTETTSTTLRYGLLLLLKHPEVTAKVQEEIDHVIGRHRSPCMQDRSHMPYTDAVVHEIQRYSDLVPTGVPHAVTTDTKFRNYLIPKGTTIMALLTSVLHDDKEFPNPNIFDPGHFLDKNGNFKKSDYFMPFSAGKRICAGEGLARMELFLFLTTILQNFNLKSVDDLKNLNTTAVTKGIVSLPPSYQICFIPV

[2] = molecular target: Cytochrome P450 2C19 (Homo sapiens, UniProt P33261); test: Drug metabolism in supersomes expressing human recombinant CYP2C19 assessed as enzyme-mediated cyanide adduct formation at 100 uM after 30 mins measured per nmol of P450 by HPLC analysis in presence of KCN
[3] = molecular target: T2, Cytochrome P450 1A1 (Homo sapiens, UniProt P04798); test: Drug metabolism in supersomes expressing human recombinant CYP1A1 assessed as enzyme-mediated cyanide adduct formation at 100 uM after 30 mins measured per nmol of P450 by HPLC analysis in presence of KCN
T2 sequence (P04798 whole entry): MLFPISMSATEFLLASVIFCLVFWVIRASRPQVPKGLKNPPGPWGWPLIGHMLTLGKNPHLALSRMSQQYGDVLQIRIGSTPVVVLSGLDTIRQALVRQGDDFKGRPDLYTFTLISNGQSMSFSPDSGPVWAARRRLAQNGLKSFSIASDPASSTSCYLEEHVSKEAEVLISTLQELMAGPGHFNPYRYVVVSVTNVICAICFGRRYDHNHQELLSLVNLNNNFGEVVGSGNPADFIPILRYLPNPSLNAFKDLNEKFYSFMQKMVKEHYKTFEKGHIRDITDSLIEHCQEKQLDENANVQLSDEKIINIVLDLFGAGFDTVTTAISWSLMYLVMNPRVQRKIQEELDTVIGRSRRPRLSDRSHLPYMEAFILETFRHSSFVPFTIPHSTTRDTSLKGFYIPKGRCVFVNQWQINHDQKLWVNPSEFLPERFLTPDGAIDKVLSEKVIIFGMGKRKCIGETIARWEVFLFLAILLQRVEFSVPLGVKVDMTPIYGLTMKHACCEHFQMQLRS

[4] = molecular target: T3, Cytochrome P450 1B1 (Homo sapiens, UniProt Q16678); test: Drug metabolism in supersomes expressing human recombinant CYP1B1 assessed as enzyme-mediated N-desmethylclozapine metabolite formation at 10 uM after 30 mins measured per nmol of P450 by HPLC analysis
T3 sequence (Q16678 whole entry): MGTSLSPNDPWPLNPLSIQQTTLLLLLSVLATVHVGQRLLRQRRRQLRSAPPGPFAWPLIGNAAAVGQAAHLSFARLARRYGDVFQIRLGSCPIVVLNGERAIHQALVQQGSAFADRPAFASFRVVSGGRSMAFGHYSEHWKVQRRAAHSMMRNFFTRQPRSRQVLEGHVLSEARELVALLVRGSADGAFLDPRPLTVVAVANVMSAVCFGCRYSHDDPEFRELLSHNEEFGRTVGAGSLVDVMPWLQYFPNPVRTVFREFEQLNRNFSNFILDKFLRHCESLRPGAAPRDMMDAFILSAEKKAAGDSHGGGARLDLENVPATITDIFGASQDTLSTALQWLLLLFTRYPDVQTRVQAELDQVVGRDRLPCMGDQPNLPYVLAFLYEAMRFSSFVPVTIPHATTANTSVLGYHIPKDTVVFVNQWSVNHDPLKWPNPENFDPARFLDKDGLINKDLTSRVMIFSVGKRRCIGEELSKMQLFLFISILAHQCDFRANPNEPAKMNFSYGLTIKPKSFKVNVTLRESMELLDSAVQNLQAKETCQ

[5] = molecular target: T3, Cytochrome P450 1B1; test: Drug metabolism in supersomes expressing human recombinant CYP1B1 assessed as enzyme-mediated clozapine-N-oxide metabolite formation at 10 uM after 30 mins measured per nmol of P450 by HPLC analysis
[6] = molecular target: T2, Cytochrome P450 1A1; test: Drug metabolism in supersomes expressing human recombinant CYP1A1 assessed as enzyme-mediated clozapine-N-oxide metabolite formation at 100 uM after 30 mins measured per nmol of P450 by HPLC analysis
[7] = molecular target: T4, Cytochrome P450 1A2 (Homo sapiens, UniProt P05177); test: Drug metabolism in supersomes expressing human recombinant CYP1A2 assessed as enzyme-mediated clozapine-N-oxide metabolite formation at 100 uM after 30 mins measured per nmol of P450 by HPLC analysis
T4 sequence (P05177 whole entry): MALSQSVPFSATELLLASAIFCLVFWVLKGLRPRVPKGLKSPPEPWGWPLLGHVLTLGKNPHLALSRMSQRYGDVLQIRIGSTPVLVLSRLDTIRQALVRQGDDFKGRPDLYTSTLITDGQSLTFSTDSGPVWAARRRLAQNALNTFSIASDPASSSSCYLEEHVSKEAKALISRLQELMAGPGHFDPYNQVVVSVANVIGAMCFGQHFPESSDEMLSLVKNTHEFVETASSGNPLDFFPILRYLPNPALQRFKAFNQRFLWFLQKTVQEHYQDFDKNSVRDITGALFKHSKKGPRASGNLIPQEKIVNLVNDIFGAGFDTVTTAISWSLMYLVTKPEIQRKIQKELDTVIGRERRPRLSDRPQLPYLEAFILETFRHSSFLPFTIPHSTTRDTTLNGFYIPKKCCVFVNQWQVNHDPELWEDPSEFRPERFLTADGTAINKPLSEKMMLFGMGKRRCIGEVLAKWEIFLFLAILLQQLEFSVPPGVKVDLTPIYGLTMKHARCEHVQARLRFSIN

[8] = molecular target: T2, Cytochrome P450 1A1; test: Drug metabolism in supersomes expressing human recombinant CYP1A1 assessed as enzyme-mediated N-desmethylclozapine metabolite formation at 100 uM after 30 mins measured per nmol of P450 by HPLC analysis
[9] = molecular target: T4, Cytochrome P450 1A2; test: Drug metabolism in supersomes expressing human recombinant CYP1A2 assessed as enzyme-mediated N-desmethylclozapine metabolite formation at 100 uM after 30 mins measured per nmol of P450 by HPLC analysis
[10] = molecular target: Cytochrome P450 2C9 (Homo sapiens, UniProt P11712); test: Drug metabolism in supersomes expressing human recombinant CYP2C9 assessed as enzyme-mediated N-desmethylclozapine metabolite formation at 100 uM after 30 mins measured per nmol of P450 by HPLC analysis
Cytochrome P450 2C9, sequence (P11712 whole entry): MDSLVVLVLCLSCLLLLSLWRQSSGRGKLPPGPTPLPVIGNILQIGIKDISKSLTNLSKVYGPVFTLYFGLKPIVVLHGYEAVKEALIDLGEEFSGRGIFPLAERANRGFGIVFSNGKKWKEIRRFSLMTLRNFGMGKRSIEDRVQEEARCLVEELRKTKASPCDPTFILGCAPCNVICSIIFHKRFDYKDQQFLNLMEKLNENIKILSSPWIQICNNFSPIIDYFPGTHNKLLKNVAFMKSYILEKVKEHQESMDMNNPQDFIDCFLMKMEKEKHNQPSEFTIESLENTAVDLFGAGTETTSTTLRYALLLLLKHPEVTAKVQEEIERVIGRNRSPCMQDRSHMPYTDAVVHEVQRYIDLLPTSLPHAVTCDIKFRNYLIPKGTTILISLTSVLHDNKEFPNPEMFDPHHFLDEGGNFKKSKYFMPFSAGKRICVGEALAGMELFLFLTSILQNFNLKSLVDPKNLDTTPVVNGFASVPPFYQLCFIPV

Cytochrome P450 2C19, sequence (P33261 whole entry): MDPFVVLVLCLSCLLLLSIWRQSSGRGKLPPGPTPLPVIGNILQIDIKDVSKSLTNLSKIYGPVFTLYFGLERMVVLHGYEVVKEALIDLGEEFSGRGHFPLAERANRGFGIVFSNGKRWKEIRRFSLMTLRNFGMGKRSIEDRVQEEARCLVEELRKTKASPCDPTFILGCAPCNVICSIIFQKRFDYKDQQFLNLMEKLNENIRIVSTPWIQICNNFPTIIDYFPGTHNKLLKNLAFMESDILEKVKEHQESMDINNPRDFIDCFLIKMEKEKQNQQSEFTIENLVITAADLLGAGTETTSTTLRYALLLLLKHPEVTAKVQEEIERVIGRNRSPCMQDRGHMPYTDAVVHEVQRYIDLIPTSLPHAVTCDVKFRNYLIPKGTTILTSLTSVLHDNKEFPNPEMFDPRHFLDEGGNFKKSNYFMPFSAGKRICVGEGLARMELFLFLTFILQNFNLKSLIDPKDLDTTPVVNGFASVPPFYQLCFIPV

CN1CCN(C2=Nc3cc(Cl)ccc3Nc3ccccc32)CC1 [CLOZAPINE]
Drug metabolism [1]: 0.058 nmol/min
Drug metabolism [2]: 0.03 nmol/min
Drug metabolism [3]: 0.024 nmol/min
Drug metabolism [4]: 1.16 nmol/min
Drug metabolism [5]: 0.84 nmol/min
Drug metabolism [6]: 0.2 nmol/min
Drug metabolism [7]: 3.7 nmol/min
Drug metabolism [8]: 0.56 nmol/min
Drug metabolism [9]: 8.71 nmol/min
Drug metabolism [10]: 0.22 nmol/min
